What all share (assay type): cell-based, Zymomonas mobilis
Test [1] concerns ZW658 strain. As to the kind of experiment: Flask growth of ZW658 on glucose and xylose with sorbitol 0.5-10 mM. As to conditions: after 14.25 hours, total sugar about 160 g/L. The protocol: (§1) Approximately 1 ml of well mixed sample was obtained from flask or fermentor. First the sample absorbance was measured directly with a spectrophotometer (Amersham Biosciences Ultrospec 3300pro, GE Healthcare, Piscataway, N.J., USA). If the reading was lower than 0.6 unit, no dilution was needed. If the reading was higher than 0.6 unit, the sample was diluted with culture medium until the actual reading was in the range of 0.1 to 0.6 unit. The original OD was calculated from the dilution ratio and the actual reading.
(§2) Glycerol stock of seed frozen at −80° C. was thawed, then inoculated into sterile culture tubes with mixture of 60 g/L glucose, 20 g/L xylose, 10 g/L yeast extract (YE), 10 g/L KH2PO4, 2 g/L (NH4)2SO4, and 1 g/L MgSO4. Initial pH was adjusted to 5.5 with 4 N KOH. This revival culture was grown statically overnight at 37° C. It was transferred into shake flasks with 75 g/L glucose, 25 g/L xylose, 10 g/L yeast extract (YE), 10 g/L KH2PO4, 2 g/L (NH4)2SO4, and 1 g/L MgSO4. Initial pH was adjusted to 5.5 with 4 N KOH. Growth was monitored by measuring OD600. When the OD reached approximately 5, a certain volume of the seed was withdrawn into a sterile syringe for inoculation.
In five sterilized 125 ml Erlenmeyer culture flasks (Cat. No. 30180-036, VWR International, USA), 10 ml of ZW658 strain seed culture at OD600 of approximately 5 (measured at 600 nm) was inoculated into each flask with 100 ml of aqueous solution containing 100 g/L glucose, 80 g/L xylose, 10 g/L yeast extract (YE), 10 g/L KH2PO4, 2 g/L (NH4)2SO4, 1 g/L MgSO4.7H2O, and various concentrations of sorbitol (0, 0.5, 1, 2, and 10 mM). After inoculation, the total sugar concentration was about 160 g/L due to dilution by the seed culture. Initial pH was adjusted to 5.5 with 4 N KOH solution. Mixing speed was set at 150 rpm. Fermentation was conducted at 33° C. and pH was not controlled. Samples were taken periodically. Samples were diluted with medium (as described in General Methods) and the OD600 was measured to monitor cell growth. […] Cultures with higher concentration of sorbitol, in this range, grew faster and better. After 14.25 hours, the OD600 were 4.19, 7.10, 8.08, 8.62, and 10.1, respectively, for sorbitol concentrations of 0, 0.5, 1, 2, and 10 mM.

In test [2] the test system is ZW658 strain. The test is described as follows: Flask fermentation of ZW658 on glucose and xylose with acetate and various polyols. To be noted: 10 mM polyol, 3 g/L acetate. The protocol:
as §1
(§3) The analysis of sugars, acetate, ethanol, and other by-products was done with an Agilent 1100 series HPLC and Agilent ChemStation software for LC 3D. The column was BioRad Aminex HPX-87H(HPLC Organic Analysis Column 125-0140) with BioRad Micro-Guard Cartridge Cation-H (125-0129). The operating conditions were:
as §2
In five sterilized 125 ml Erlenmeyer culture flasks (Cat. No. 30180-036, VWR International, USA), 10 ml of ZW658 strain seed culture at OD600 of approximately 5 was inoculated into each flask with 100 ml of aqueous solution containing 100 g/L glucose, 80 g/L xylose, 3 g/L acetate, 10 g/L yeast extract (YE), 2 g/L KH2PO4, 1 g/L MgSO4.7H2O, and 4 g/L KHCO3, and 10 mM of the following polyols: erythritol, sorbitol, mannitol, maltitol, or lactitol; or 5 mM sorbitol plus 5 mM maltitol, or 5 mM sorbitol plus 5 mM lactitol. After inoculation, the total sugar concentration was about 160 g/L due to dilution by the seed culture. Initial pH was adjusted to 5.5 with 4 N H3PO4 solution. Mixing speed was set at 150 rpm. Fermentation was conducted at 33° C. and pH was not controlled. Samples were taken periodically. Samples were filtered through 0.22 micron filters, and the filtrates were analyzed by HPLC as described in General Methods for compounds including glucose, xylose, ethanol, and acetate. Samples were diluted with medium (as described in General Methods) and the OD600 was measured to monitor cell growth.

Test [3] relates to ZW658 strain. As to the kind of experiment: Tube fermentation of ZW658 on glucose and xylose with various sugar alcohols (Example 13). To be noted: sugar alcohol in the medium vs control. As to the method: as §1, §3
In eight sterilized 50 ml screw-cap centrifuge tubes (Cat. No. 21008-178, VWR International, USA), 200 μl of ZW658 strain glycerol stock at OD600 of approximately 10 was inoculated into each flask with 25 ml of aqueous solution containing 92 g/L glucose, 82 g/L xylose, 10 g/L yeast extract (YE), 2 g/L KH2PO4, 1 g/L MgSO4.7H2O, and either 10 mM of sorbitol, arabitol, adonitol (also called ribitol), or galactitol; or 50 mM of arabitol, adonitol, or galactitol. The control had no sugar alcohol added. Initial pH was adjusted to 5.5 with 4 N H3PO4 solution. Fermentation was conducted at 33° C. and pH was not controlled. Samples were taken periodically between 0 and 40 hr. Samples were filtered through 0.22 micron filters, and the filtrates were analyzed by HPLC as described in General Methods for glucose, xylose, xylitol, and ethanol. Samples were diluted with medium (as described in General Methods) and the OD600 was measured to monitor cell growth. Results of growth and glucose utilization are given in FIGS. 20A and 20B, respectively. Results of xylose utilization and ethanol production are given in FIGS. 21A and 21B, respectively. Cultures with sorbitol or galactitol grew much faster and better than the control. Cultures with adonitol also grew better. After 40 hours, the OD600 were 7 to 8, for cultures supplemented with sorbitol or galactitol; the OD600 were about 5, for cultures supplemented with adonitol; while the OD600 were less than 1 for other cultures. […] The presence of sorbitol, galactitol, or adonitol allowed more xylose utilization, without production of xylitol.

The text below walks through data of patent publication US7629156B2, “Ethanol production in fermentation of mixed sugars containing xylose” (E.I. du Pont de Nemours and Company, priority 2006, dated 2009).

As for `OC[C@@H](O)[C@@H](O)[C@H](O)[C@@H](O)CO` [sorbitol], the OD600 is listed as 7.10 in the test on ZW658 strain [1] (0.5 mM sorbitol); 8.08 with ZW658 strain [1] (1 mM sorbitol); 8.62 in the test with ZW658 strain [1] (2 mM sorbitol); 10.1 in the test with ZW658 strain [1] (10 mM sorbitol); 7.88 in the test with ZW658 strain [2] (after 32 hours, total sugar about 160 g/L). The ethanol production result in the test with ZW658 strain [2] and in the test with ZW658 strain [3] was “ethanol production was also better” each time. Moreover, the xylose utilization entry in the test with ZW658 strain [2] and in the test with ZW658 strain [3] was “More xylose was utilized” throughout.
